Experimental data taken from the OligoGym collection.
Several values for one entry are separate records, joined by “and”; a condition that tells them apart may be missing. Identical values can stand only once. After the bases stand the sugars from the 5' end (letter, count) and the backbone: PS all phosphorothioate, else s phosphorothioate and o phosphodiester by linkage. Methylation of C is not given here. e = 2'-O-(2-methoxyethyl) (MOE); k = constrained ethyl (cEt); d = 2'-deoxy (DNA)

Molecular target: SOD1
Conditions: ASO

Sequence: CTTTGGCCCACCGTGTTTTC (sugars e5 d10 e5, PS)
- target mRNA inhibition (HepG2, 5 µM): 31% and 15%

Sequence: GTTTAATGTTTATCAGG (sugars e2 k2 d8 k2 e3, PS)
- target mRNA inhibition (HepG2, 0.1875 µM): 55%
- target mRNA inhibition (HepG2, 0.75 µM): 78%
- target mRNA inhibition (HepG2, 3 µM): 87%
- target mRNA inhibition (HepG2, 5 µM): 87%
- target mRNA inhibition (HepG2, 12 µM): 93%

Sequence: CTCAGACTACATCCAAG (sugars e3 k2 d7 k2 e3, PS)
- target mRNA inhibition (HepG2, 0.1875 µM): 42%
- target mRNA inhibition (HepG2, 0.75 µM): 72%
- target mRNA inhibition (HepG2, 3 µM): 76% and 88%
- target mRNA inhibition (HepG2, 12 µM): 90%

Sequence: TGCCATACAGGGTTTTT (sugars e2 k2 d8 k2 e3, PS)
- target mRNA inhibition (HepG2, 5 µM): 21%

Sequence: CACTTTTAAGATTACAG (sugars e2 k2 d9 k2 e2, PS)
- target mRNA inhibition (HepG2, 5 µM): 49%

Sequence: TGATCATAAATCAGTTT (sugars e2 k2 d8 k2 e3, PS)
- target mRNA inhibition (HepG2, 5 µM): 49%

Sequence: TCTTTTAATAGCCTCAT (sugars e2 k2 d9 k2 e2, PS)
- target mRNA inhibition (HepG2, 5 µM): 56%

Sequence: CATCTTTGTCAGCAGTCACA (sugars e5 d10 e5, PS)
- target mRNA inhibition (HepG2, 5 µM): 34% and 13%

Sequence: GGCCCACCGTGTTTTCTGGA (sugars e5 d10 e5, PS)
- target mRNA inhibition (HepG2, 5 µM): 46% and 41%

Sequence: TTATTGGGCGATCCCAA (sugars e3 k2 d7 k2 e3, PS)
- target mRNA inhibition (HepG2, 3 µM): 15%

Sequence: ACCTGCACTGGTACAGCCTG (sugars e5 d10 e5, PS)
- target mRNA inhibition (HepG2, 5 µM): 46% and 48%

Sequence: TGTTTATTGGGCGATCC (sugars e3 k2 d7 k2 e3, PS)
- target mRNA inhibition (HepG2, 3 µM): 21%

Sequence: GGATTCTTTTAATAGCC (sugars e2 k2 d8 k2 e3, PS)
- target mRNA inhibition (HepG2, 5 µM): 14%

Sequence: GAATGTTTATTGGGCGA (sugars e2 k2 d9 k2 e2, PS)
- target mRNA inhibition (HepG2, 4 µM): 65%

Sequence: CTACAGCTAGCAGGATA (sugars e3 k2 d7 k2 e3, PS)
- target mRNA inhibition (HepG2, 0.1875 µM): 44%
- target mRNA inhibition (HepG2, 0.75 µM): 62%
- target mRNA inhibition (HepG2, 3 µM): 55% and 80%
- target mRNA inhibition (HepG2, 12 µM): 86%

Sequence: GTCGCCATAACTCGCTAGGC (sugars e5 d10 e5, PS)
- target mRNA inhibition (HepG2, 0.1875 µM): 10%
- target mRNA inhibition (HepG2, 0.75 µM): 21%
- target mRNA inhibition (HepG2, 3 µM): 39%
- target mRNA inhibition (HepG2, 4 µM): 40%
- target mRNA inhibition (HepG2, 12 µM): 90%

Sequence: AACAGATGAGTTAAGGG (sugars e2 k2 d9 k2 e2, PS)
- target mRNA inhibition (HepG2, 0.1875 µM): 27%
- target mRNA inhibition (HepG2, 0.75 µM): 49%
- target mRNA inhibition (HepG2, 3 µM): 82%
- target mRNA inhibition (HepG2, 4 µM): 86% and 82%
- target mRNA inhibition (HepG2, 12 µM): 89% and 92%

Sequence: TAATGTTTATCAGGAT (sugars kekeddddddddekek, linkages s1 o3 s8 o1 s2)
- target mRNA inhibition (A431, 0.12 µM): 0%
- target mRNA inhibition (A431, 0.6 µM): 15%
- target mRNA inhibition (A431, 3 µM): 17%
- target mRNA inhibition (A431, 15 µM): 48%

Sequence: CAAGTGATCATAAATCA (sugars e2 k2 d9 k2 e2, PS)
- target mRNA inhibition (HepG2, 5 µM): 29%

Sequence: AATTACACCACAAGCCA (sugars e2 k2 d8 k2 e3, PS)
- target mRNA inhibition (HepG2, 4 µM): 62%

Sequence: CACTACAGGTACTTTAA (sugars e2 k2 d8 k2 e3, PS)
- target mRNA inhibition (HepG2, 5 µM): 27%

Sequence: TGTGATTTAAGTCTGGC (sugars e2 k2 d8 k2 e3, PS)
- target mRNA inhibition (HepG2, 5 µM): 45%

Sequence: GTGTGCGGCCAATGATGCAA (sugars e5 d10 e5, PS)
- target mRNA inhibition (HepG2, 5 µM): 15%

Sequence: ATACATTTCTACAGCTA (sugars e3 k2 d7 k2 e3, linkages s1 o2 s9 o2 s2)
- target mRNA inhibition (A431, 0.12 µM): 4%
- target mRNA inhibition (A431, 0.6 µM): 13%
- target mRNA inhibition (A431, 3 µM): 26%
- target mRNA inhibition (A431, 15 µM): 37%

Sequence: AAGTCACACAATTACAC (sugars e2 k2 d9 k2 e2, PS)
- target mRNA inhibition (HepG2, 5 µM): 37%

Sequence: ACTACATCCAAGGGAAT (sugars e3 k2 d7 k2 e3, PS)
- target mRNA inhibition (HepG2, 3 µM): 7%

Sequence: AGTGTTTAATGTTTATC (sugars e2 k2 d8 e5, linkages s1 o2 s9 o2 s2)
- target mRNA inhibition (A431, 0.062 µM): 16%
- target mRNA inhibition (A431, 0.185 µM): 43%
- target mRNA inhibition (A431, 0.556 µM): 65%
- target mRNA inhibition (A431, 1.667 µM): 68%
- target mRNA inhibition (A431, 5 µM): 79%
- target mRNA inhibition (A431, 15 µM): 83%
- target mRNA inhibition (SH-SY5Y, 0.062 µM): 33%
- target mRNA inhibition (SH-SY5Y, 0.185 µM): 10%
- target mRNA inhibition (SH-SY5Y, 0.556 µM): 43%
- target mRNA inhibition (SH-SY5Y, 1.667 µM): 61%
- target mRNA inhibition (SH-SY5Y, 5 µM): 81%
- target mRNA inhibition (SH-SY5Y, 15 µM): 77%

Sequence: ATACAGGTCATTGAAAC (sugars e2 k2 d9 k2 e2, PS)
- target mRNA inhibition (HepG2, 5 µM): 22%

Sequence: TCTTCCAAGTGATCATA (sugars e2 k2 d9 k2 e2, PS)
- target mRNA inhibition (HepG2, 5 µM): 43%

Sequence: TCATAAATCAGTTTCTCACT (sugars e5 d10 e5, PS)
- target mRNA inhibition (HepG2, 5 µM): 21%

Sequence: AGCCTCATAATAAGTGCCAT (sugars e5 d10 e5, PS)
- target mRNA inhibition (HepG2, 5 µM): 6%

Sequence: GCCATACAGGGTTTTTA (sugars e3 k2 d7 k2 e3, PS)
- target mRNA inhibition (HepG2, 3 µM): 11%

Sequence: ATAACAGATGAGTTAAG (sugars e2 k2 d9 k2 e2, PS)
- target mRNA inhibition (HepG2, 4 µM): 42%
